In ChEMBL document CHEMBL1135903 (J Med Chem, 2002):
≈ marks a conversion by molar mass, not a printed value.

Columns and labels:
[1] = Solubility in Chloroform buffer at pH 7.4; type: physicochemical
Carbonic anhydrase 4 = biological target: T1, Carbonic anhydrase 4 (Bos taurus, UniProt Q95323)
T1 sequence (Q95323 whole entry): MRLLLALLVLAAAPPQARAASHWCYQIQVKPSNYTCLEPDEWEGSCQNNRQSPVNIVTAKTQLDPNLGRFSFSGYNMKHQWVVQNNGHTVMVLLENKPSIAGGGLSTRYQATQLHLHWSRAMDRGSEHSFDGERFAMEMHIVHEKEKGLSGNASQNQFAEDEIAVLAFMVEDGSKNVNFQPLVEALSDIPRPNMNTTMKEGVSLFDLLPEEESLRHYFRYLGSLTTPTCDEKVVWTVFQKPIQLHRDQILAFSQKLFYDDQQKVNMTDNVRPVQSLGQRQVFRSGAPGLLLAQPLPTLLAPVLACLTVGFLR
Description: Inhibitory activity against bovine carbonic anhydrase IV

[2] = not given; remark: listed apart in the source
[3] = octanol/water
Carbonic anhydrase 1 = Carbonic anhydrase 1 (Homo sapiens, UniProt P00915)
Description: Inhibitory activity against Human carbonic anhydrase I

[4] = not given; remark: listed apart in the source
[5] = not given; remark: listed apart in the source
physchem = settings: buffer, pH 5.5
Description: Solubility in buffer at pH 5.5

[6] = Solubility in chloroform buffer at pH 7.4; type: physicochemical
[7] = Partition coefficient in Chloroform-buffer at pH 7.4; type: physicochemical
Oryctolagus cuniculus [8] = species on record: Oryctolagus cuniculus
Oryctolagus cuniculus [9] = species on record: Oryctolagus cuniculus; remark: listed apart in the source
Oryctolagus cuniculus [10] = species on record: Oryctolagus cuniculus; remark: listed apart in the source
Oryctolagus cuniculus [11] = species on record: Oryctolagus cuniculus; remark: listed apart in the source
[12] = Solubility in buffer at pH 7.4; type: physicochemical

Chain of Carbonic anhydrase 1 (P00915 whole entry): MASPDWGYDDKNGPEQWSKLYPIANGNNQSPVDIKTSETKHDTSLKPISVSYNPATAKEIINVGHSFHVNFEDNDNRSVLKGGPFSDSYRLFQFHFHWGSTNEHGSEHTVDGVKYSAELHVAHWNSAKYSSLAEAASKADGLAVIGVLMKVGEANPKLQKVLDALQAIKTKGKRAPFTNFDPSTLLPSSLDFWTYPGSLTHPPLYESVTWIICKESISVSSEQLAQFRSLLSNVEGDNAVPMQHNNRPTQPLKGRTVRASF

solubility [1] [mM] | Ki (Carbonic anhydrase 4) [µM] | Kin x10e3 [hr-1] | Kin x10e3 [2] [hr-1] | logD [3] | Ki (Carbonic anhydrase 1) [µM] | Kin x10e3 [4] [hr-1] | Kin x10e3 [5] [hr-1] | solubility (physchem) [mM] | Compound | further results
48 (≈ 26.3 mg/mL) | 0.18 | 6.9 | 3.8 | 0.983 |  |  |  |  | NS(=O)(=O)c1ccc(NC(=O)CN(CCN(CCN(CC(=O)O)CC(=O)O)CC(=O)O)CC(=O)O)cc1 | 
 | 0.016 |  |  | 1.534 | 0.155 | 8.3 | 4.5 | 47 (≈ 34.1 mg/mL) | NS(=O)(=O)c1ccc(NC(=O)CN(CCOCCOCCN(CC(=O)O)CC(=O)Nc2ccc(S(N)(=O)=O)cc2F)CC(=O)O)c(F)c1 | 
65 (≈ 30.5 mg/mL) | 0.026 | 9.5 | 4.8 | 1.75 | 0.215 |  |  |  | Cn1nc(S(N)(=O)=O)s/c1=N/C(=O)CN(CCN(CC(=O)O)CC(=O)O)CC(=O)O | 
 | 0.032 |  |  | 1.747 | 0.078 | 6.5 | 3.3 | 50 (≈ 30.7 mg/mL) | NS(=O)(=O)c1ccc(NC(=O)CN(CCOCCOCCN(CC(=O)O)CC(=O)O)CC(=O)O)c(Br)c1 | 
59 (≈ 32.8 mg/mL) | 0.028 | 8.1 | 4.3 | 1.375 |  |  |  |  | NS(=O)(=O)c1nnc(NC(=O)CN(CCN(CCN(CC(=O)O)CC(=O)O)CC(=O)O)CC(=O)O)s1 | 
 | 0.048 | 4.6 | 2.5 |  | 0.28 |  |  |  | NS(=O)(=O)c1nnc(NC(=O)CCNC(=O)CNCC(=O)O)s1 | solubility [6]: 62 mM (≈ 22.7 mg/mL); logD [7]: 1.23
 | 0.011 |  |  | 1.166 | 0.045 | 8.4 | 4.7 | 44 (≈ 17.1 mg/mL) | NS(=O)(=O)c1nc2ccc(OC(=O)CNCCNCC(=O)O)cc2s1 | 
 |  |  |  |  |  |  |  |  | (Carboxymethyl-{2-[2-(2-{carboxymethyl-[(5-sulfamoyl-[1,3,4]thiadiazol-2-ylcarbamoyl)-methyl]-amino}-ethoxy)-ethoxy]-ethyl}-amino)-acetic acid; compound with Cu complex | Delta IOP (Oryctolagus cuniculus [8]): 0 mmHg; Delta IOP (Oryctolagus cuniculus [9]): 4.7 mmHg; Delta IOP (Oryctolagus cuniculus [10]): 9.6 mmHg; Delta IOP (Oryctolagus cuniculus [11]): 13.5 mmHg
 | 0.01 | 5.9 | 3 | 1.15 | 0.125 |  |  |  | NS(=O)(=O)c1nnc(NC(=O)CCNC(=O)CN(CCN(CC(=O)O)CC(=O)NCCC(=O)Nc2nnc(S(N)(=O)=O)s2)CC(=O)O)s1 | solubility [12]: 46 mM (≈ 34.9 mg/mL)
41 (≈ 26.4 mg/mL) | 0.017 | 5.5 | 3.1 | 1.333 |  |  |  |  | Cn1nc(S(N)(=O)=O)s/c1=N/C(=O)CN(CCN(CC(=O)O)CC(=O)/N=c1/sc(S(N)(=O)=O)nn1C)CC(=O)O | 
 | 0.007 |  |  | 1.961 |  | 6.2 | 3.9 | 54 (≈ 39 mg/mL) | NS(=O)(=O)C1N=NC(NC(=O)CN(CCN(CCN(CC(=O)O)CC(=O)NC2N=NC(S(N)(=O)=O)S2)CC(=O)O)CC(=O)O)S1 (configuration not stated) | 
35 (≈ 24.6 mg/mL) | 0.156 | 4.5 | 3.6 | 1.456 |  |  |  |  | NS(=O)(=O)c1ccc(NC(=O)CN(CCN(CCN(CC(=O)O)CC(=O)Nc2ccc(S(N)(=O)=O)cc2)CC(=O)O)CC(=O)O)cc1 | 
44 (≈ 26.1 mg/mL) | 0.035 | 10.7 | 5.1 | 2.354 | 0.21 |  |  |  | NS(=O)(=O)c1nnc(NC(=O)CCNC(=O)CN(CCN(CC(=O)O)c2ccccc2O)c2ccccc2O)s1 | 
 | 0.01 |  |  |  | 0.044 |  |  |  | NS(=O)(=O)c1nc2ccc(OCCOC(=O)CN(CC(=O)O)CC(=O)O)cc2s1 | solubility [12]: 37 mM (≈ 16.6 mg/mL); logD [7]: 1.925
32 (≈ 28.7 mg/mL) | 0.051 | 7 | 3.6 | 1.764 | 0.065 |  |  |  | NS(=O)(=O)c1cc(S(N)(=O)=O)c(NC(=O)CN(CCN(CC(=O)O)CC(=O)Nc2c(S(N)(=O)=O)cc(S(N)(=O)=O)c(Cl)c2Cl)CC(=O)O)c(Cl)c1Cl | 
 | 0.021 |  |  | 1.446 | 0.054 | 8.4 | 4.6 | 52 (≈ 28.2 mg/mL) | NS(=O)(=O)c1nnc(NC(=O)CN(CCOCCOCCN(CC(=O)O)CC(=O)O)CC(=O)O)s1 | 
